What was measured:
[1] = target: T1, CYP3A4 (Homo sapiens, UniProt P08684); test: Cytochrome oxidase P450 inhibition test, CYP3A4; type: in vitro ADME; conditions: liver microsome incubation
T1 construct: from tissue; host or cells: liver microsome
Experimental: (§1) 100 mM K-Buffer: 9.5 mL of stock solution A was mixed with 40.5 mL of stock solution B, the total volume was adjusted to […] with ultrapure water, and the buffer was titrated to pH 7.4 with KOH or H3PO4. • Starting material A (1 M potassium dihydrogen phosphate): 136.5 g of potassium dihydrogen phosphate in 1 L of water. • Stock B […] in 1 L of water. The test substance powder was prepared into a stock solution with a certain concentration using DMSO or other organic solvents, which was then further diluted using a proper organic solvent. The extracorporeal incubation system for CYP450 enzyme metabolism phenotype study was biochemical reaction of a prepared liver microsome, a redox coenzyme, and an enzyme-specific selective inhibitor in simulated physiological temperature and environment. The concentration of the parent drug or a metabolite thereof in the incubation solution was determined by LC-MS/MS.

[2] = target: T2, CYP1A2 (Homo sapiens, UniProt P05177); test: Cytochrome oxidase P450 inhibition test, CYP1A2; type: in vitro ADME; conditions: liver microsome incubation
T2 construct: from tissue; host or cells: liver microsome
T2 sequence (P05177 1-516): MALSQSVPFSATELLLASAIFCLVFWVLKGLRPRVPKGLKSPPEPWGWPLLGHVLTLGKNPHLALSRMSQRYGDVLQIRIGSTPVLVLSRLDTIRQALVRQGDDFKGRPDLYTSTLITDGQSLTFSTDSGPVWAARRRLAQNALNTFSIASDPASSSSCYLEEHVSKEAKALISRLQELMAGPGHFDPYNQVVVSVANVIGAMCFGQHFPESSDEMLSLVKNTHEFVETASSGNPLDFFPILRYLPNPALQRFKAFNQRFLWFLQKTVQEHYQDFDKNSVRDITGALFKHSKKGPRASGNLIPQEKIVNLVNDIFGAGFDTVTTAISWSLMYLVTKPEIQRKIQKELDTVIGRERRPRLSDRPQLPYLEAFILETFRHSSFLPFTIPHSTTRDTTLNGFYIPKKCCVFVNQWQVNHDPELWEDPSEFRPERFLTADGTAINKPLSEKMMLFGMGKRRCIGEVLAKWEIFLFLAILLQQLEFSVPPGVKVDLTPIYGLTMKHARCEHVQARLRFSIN
Experimental: as §1

[3] = target: T3, CYP2D6 (Homo sapiens, UniProt P10635); test: Cytochrome oxidase P450 inhibition test, CYP2D6; type: in vitro ADME; conditions: liver microsome incubation
T3 construct: from tissue; host or cells: liver microsome
Experimental: as §1

[4] = Metabolic stability test in hepatocytes, mouse; type: in vitro ADME; conditions: hepatocytes (suspension), Table 5: metabolic stability in hepatocytes, up to 90 min, read-out: Metabolic half-life in mouse liver microsome (T½, min)
Experimental: (§2) This experimental example was used to test the metabolic stability of the compounds in hepatocytes.
(§3) A suspension of hepatocytes was prepared at 0.5×10^6/mL with a pre-heated medium, then 198 μL of the pre-heated cell suspension was added to a 96-well plate. To each well of the 96-well plate, 2 μL of the test compound was added so that the final concentration was 1 μM, and 2 replicate wells were set. For the T=0 min sample, the compound was mixed well with the cells for 1 min, then […] was immediately added to 125 μL of a stop solution (an acetonitrile solution containing 200 ng/mL tolbutamide and 200 ng/mL labetalol) under an ice bath and mixed well. At the same time, all the plates were placed in an incubator at 37° C. with 5% CO2, with the shaker set at 600 rpm. The sample was mixed well at 15, 30, 60, and 90 min of incubation, respectively, and 25 μL of the sample was added to 125 μL of a stop solution (an acetonitrile solution containing 200 ng/mL tolbutamide and 200 ng/mL labetalol) under an ice bath, mixed well, and shaken at 500 rpm for 10 min. Subsequently, the plate was centrifuged for 20 min at 3220×g at 4° C. After the centrifugation was completed, 80 μL of the supernatant from each well was transferred to another 96-well plate containing 240 μL of ultrapure water. Subsequently, analysis was carried out using LC-MS/MS, and intrinsic clearance (CLint) and half-life (T½) were calculated.

[5] = Metabolic stability test in hepatocytes, rat; type: in vitro ADME; conditions: hepatocytes (suspension), Table 5: metabolic stability in hepatocytes, up to 90 min, read-out: Metabolic half-life in rat liver microsome (T½, min)
Experimental: as §2, §3

[6] = target: T4, CYP2C9 (Homo sapiens, UniProt P11712); test: Cytochrome oxidase P450 inhibition test, CYP2C9; type: in vitro ADME; conditions: liver microsome incubation
T4 construct: from tissue; host or cells: liver microsome
Experimental: as §1

[7] = target: T5, CYP2C19 (Homo sapiens, UniProt P33261); test: Cytochrome oxidase P450 inhibition test, CYP2C19; type: in vitro ADME; conditions: liver microsome incubation
T5 construct: from tissue; host or cells: liver microsome
Experimental: as §1

[8] = Stability test in liver microsomes, human; type: in vitro ADME, humans; conditions: human liver microsomes 0.5 mg/mL, 1.0 μM substrate, up to 60 min; read-out: Metabolic half-life in human liver microsome ( T1/2, min)
[9] = Stability test in liver microsomes, mouse; type: in vitro ADME, CD-1 mice; conditions: CD-1; mouse liver microsomes 0.5 mg/mL, 1.0 μM substrate, up to 60 min; read-out: Metabolic half-life in mouse liver microsome (T½, min)
[10] = Metabolic stability test in hepatocytes, human; type: in vitro ADME; conditions: hepatocytes (suspension), Table 5: metabolic stability in hepatocytes, up to 90 min, read-out: Metabolic half-life in human liver microsome (T½, min)
Experimental: as §2
as §3, with “After the centrifugation was completed, 80 μL of the supernatant from each well was transferred to another 96-well plate containing 240 μL of ultrapure water.” left out

[11] = system: Human colorectal adenocarcinoma cells HCT116-MTAP-KO; test: Mouse xenograft tumor pharmacodynamic model, HCT116-MTAP-KO; type: in vivo
Experimental: In this example, the in vivo efficacy of the compound in a mouse xenograft tumor model after intragastric (PO) administration was tested.
Human colorectal adenocarcinoma cells HCT116-MTAP-KO were cultured in monolayer in vitro under the condition of McCoy's 5A medium containing 10% fetal bovine serum and 1% penicillin and streptomycin, and the culture was carried out at 37° C. with 5% CO2. The cells were digested with trypsin three times a week for passaging. When the saturation degree of the cells was 80-90%, the cells were collected, counted and inoculated. 0.1 mL (5×10^6 cells) of HCT116-MTAP-KO cells were subcutaneously inoculated on the right back of each mouse. On day 16 after inoculation of the cells, the mean tumor volume reached 154 mm^3. The mice were randomly grouped for administration and intragastrically dosed once daily. Changes in body weight and tumor volume were recorded. After a certain number of days of administration, the experiment was ended. Tumor volume changes and mouse body weight changes were counted and analyzed. AG270 (CAS: 2201056-66-6) was the positive control compound.

T5 sequence (P33261 whole entry): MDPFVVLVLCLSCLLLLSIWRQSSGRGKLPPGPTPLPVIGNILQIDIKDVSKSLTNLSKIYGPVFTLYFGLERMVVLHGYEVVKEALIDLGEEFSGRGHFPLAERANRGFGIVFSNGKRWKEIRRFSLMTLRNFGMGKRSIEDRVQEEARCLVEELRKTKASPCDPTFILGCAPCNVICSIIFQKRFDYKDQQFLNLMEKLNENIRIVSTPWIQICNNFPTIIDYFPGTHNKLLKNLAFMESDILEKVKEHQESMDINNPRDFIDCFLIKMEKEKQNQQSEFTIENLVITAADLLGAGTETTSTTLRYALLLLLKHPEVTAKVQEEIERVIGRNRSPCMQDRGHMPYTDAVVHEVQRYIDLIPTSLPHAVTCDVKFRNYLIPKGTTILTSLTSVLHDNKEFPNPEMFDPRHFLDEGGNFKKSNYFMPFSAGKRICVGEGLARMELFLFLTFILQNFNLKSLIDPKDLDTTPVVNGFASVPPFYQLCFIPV
T1 sequence (P08684 whole entry): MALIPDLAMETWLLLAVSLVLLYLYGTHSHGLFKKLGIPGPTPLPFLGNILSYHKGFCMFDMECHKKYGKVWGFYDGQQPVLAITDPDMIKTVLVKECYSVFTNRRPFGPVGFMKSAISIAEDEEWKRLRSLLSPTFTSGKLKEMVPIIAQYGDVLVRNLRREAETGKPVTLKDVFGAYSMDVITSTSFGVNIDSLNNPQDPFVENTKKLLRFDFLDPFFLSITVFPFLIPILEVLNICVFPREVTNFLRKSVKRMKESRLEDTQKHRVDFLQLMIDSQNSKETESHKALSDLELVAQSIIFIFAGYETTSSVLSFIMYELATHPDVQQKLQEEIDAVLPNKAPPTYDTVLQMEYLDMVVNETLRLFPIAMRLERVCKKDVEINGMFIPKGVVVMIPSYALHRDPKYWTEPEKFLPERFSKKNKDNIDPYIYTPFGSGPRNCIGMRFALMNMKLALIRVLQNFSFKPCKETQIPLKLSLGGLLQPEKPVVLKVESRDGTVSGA
T4 sequence (P11712 whole entry): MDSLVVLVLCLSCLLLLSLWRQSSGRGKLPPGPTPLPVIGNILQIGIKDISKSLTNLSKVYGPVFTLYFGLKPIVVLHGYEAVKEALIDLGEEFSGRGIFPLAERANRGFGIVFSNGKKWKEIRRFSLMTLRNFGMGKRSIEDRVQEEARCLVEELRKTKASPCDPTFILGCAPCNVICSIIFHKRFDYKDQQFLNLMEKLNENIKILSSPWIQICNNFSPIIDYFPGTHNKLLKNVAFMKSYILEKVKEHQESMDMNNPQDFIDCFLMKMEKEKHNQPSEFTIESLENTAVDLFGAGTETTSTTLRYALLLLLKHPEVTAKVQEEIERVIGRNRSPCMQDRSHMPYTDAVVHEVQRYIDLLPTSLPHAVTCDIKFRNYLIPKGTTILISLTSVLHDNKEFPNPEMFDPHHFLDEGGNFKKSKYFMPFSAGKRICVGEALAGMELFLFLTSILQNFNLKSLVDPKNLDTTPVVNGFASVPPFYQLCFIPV
T3 sequence (P10635 whole entry): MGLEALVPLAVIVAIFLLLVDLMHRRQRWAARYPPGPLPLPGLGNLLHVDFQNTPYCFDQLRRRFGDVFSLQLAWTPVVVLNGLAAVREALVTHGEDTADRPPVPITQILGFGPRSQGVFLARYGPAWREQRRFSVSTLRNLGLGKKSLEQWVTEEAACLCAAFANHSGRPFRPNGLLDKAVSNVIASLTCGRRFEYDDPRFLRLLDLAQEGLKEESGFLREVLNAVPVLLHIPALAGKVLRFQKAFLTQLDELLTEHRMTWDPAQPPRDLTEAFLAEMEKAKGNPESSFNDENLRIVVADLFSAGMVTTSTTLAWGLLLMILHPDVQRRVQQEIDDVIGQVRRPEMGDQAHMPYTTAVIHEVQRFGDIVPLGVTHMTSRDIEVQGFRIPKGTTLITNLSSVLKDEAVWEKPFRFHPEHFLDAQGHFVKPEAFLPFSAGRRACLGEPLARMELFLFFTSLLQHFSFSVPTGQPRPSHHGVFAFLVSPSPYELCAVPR

IC50 [1] [µM]	IC50 [2] [µM]	IC50 [3] [µM]	half-life at 1 μM [4] [min]	half-life at 1 μM [5] [min]	IC50 [6] [µM]	IC50 [7] [µM]	half-life at 1 μM [8] [min]	half-life at 1 μM [9] [min]	Structure (SMILES)	other results
> 10	> 10	> 10	47.1	51.1	> 10	> 10			Cc1ncccc1-n1c(=O)c2nn(C)cc2c2ccc(C(F)(F)F)nc21 (single isomer, unassigned) [Compound B180]	
> 10	> 10	> 10	68.8		> 10	> 10	> 145	> 145	Cn1cc2c(n1)c(=O)n(-c1cccnc1)c1cc(Cl)ccc21 [Compound B12]	
> 10	> 10	> 10			> 10	> 10	722	> 145	Cn1cc2c(n1)c(=O)n(-c1cccc3[nH]ncc13)c1cc(Cl)ccc21 [Compound B60]	
			14.9	50.9			> 145	120	Cn1cc2c(n1)c(=O)n(-c1cccc(O)c1)c1nc(C(F)(F)F)ccc21 [Compound B148]	
> 30	> 30	> 30	91.1		> 30	> 30	> 145	> 145	Cn1cc2c(n1)c(=O)n(-c1cccc3[nH]ncc13)c1nc(C(F)(F)F)ccc21 [Compound B181]	half-life at 1 μM [10]: > 217 min
							258	136	Cn1cc2c(n1)c(=O)n(-c1ccccc1Cl)c1nc(C(F)(F)F)ccc21 [Compound B182]	
									Cn1cc2c(n1)c(=O)n(-c1cccc3[nH]ncc13)c1cc(Cl)c(F)cc21 [Compound B257]	Tumor growth inhibition percentage (TGI) ([11]; PO 1 mg/kg once a day, 15 days of administration): once a day TGI = 77.29%; Tumor growth inhibition percentage (TGI) ([11]; PO 1 mg/kg once a day, 28 days of administration): once a day TGI = 51.34%; Tumor growth inhibition percentage (TGI) ([11]; PO 3 mg/kg once a day, 28 days of administration): once a day TGI = 87.78%
									Cn1cc2c(n1)c(=O)n(-c1cccc3[nH]ncc13)c1cc(Cl)c(C#N)cc21 [Compound B258]	Tumor growth inhibition percentage (TGI) ([11]; PO 3 mg/kg once a day, 15 days of administration): once a day TGI = 52.48%; Tumor growth inhibition percentage (TGI) ([11]; PO 10 mg/kg once a day, 15 days of administration): once a day TGI = 72.58%; Tumor growth inhibition percentage (TGI) ([11]; PO 30 mg/kg once a day, 15 days of administration): once a day TGI = 81.2%; Tumor growth inhibition percentage (TGI) ([11]; PO 100 mg/kg once a day, 15 days of administration): once a day TGI = 83.75%
			124	150					Cn1cc2c(n1)c(=O)n(-c1cccnc1C1CC1)c1cc(Cl)c(F)cc21 [Compound B340]	half-life at 1 μM [10]: > 217 min; Tumor growth inhibition percentage (TGI) ([11]; PO 3 mg/kg once a day, 22 days of administration): once a day TGI = 48.04%; Tumor growth inhibition percentage (TGI) ([11]; PO 10 mg/kg once a day, 22 days of administration): once a day TGI = 61.99%; Tumor growth inhibition percentage (TGI) ([11]; PO 30 mg/kg once a day, 22 days of administration): once a day TGI = 72.55%

Reference: patent publication US20240391923A1, “METHIONINE ADENOSYLTRANSFERASE 2A INHIBITOR FOR TREATING MTAP DELETION-TYPE CANCER” (SUZHOU GENHOUSE BIO CO., LTD., priority 2022, published 2024)
